# Experimental data taken from ChEMBL document CHEMBL1150091, “Cytotoxic compounds from a two-sponge association” (J Nat Prod, 1995).
# Calls of active or inactive are those of the source. The calls are words filed in the database; no cut-off is given here.
# Legend:
# [1] = test system: Nucleic Acid; assay: Induction of strand scission activity in bacteriophage X174RF1 DNA infected in Escherichia coli; type: nucleic-acid assay; details: unidentified phage
# [2] = species: Rattus norvegicus; assay: Inhibition of NADH dehydrogenase and oxidase activity of electron transport protein complex 1 in rat […] assessed as blockade of reduction-oxidation process; type: cell membranes
# [3] = test system: Mus musculus; assay: (§1) Toxicity in ip dosed mouse; type: organism-based; details: in vivo
# [4] = test system: A549; assay: Cytotoxicity against human A549 cells; type: functional; details: read-out: LC50 (the source's name)
# [5] = Toxicity in Artemia salina; type: organism-based; details: in vivo
# [6] = test system: P388; assay: Cytotoxicity against mouse P388 cells; type: functional; details: read-out: LC50 (the source's name)
# [7] = test system: OVCAR-8; assay: Cytotoxicity against human OVCAR8 cells; type: functional; details: read-out: LC50 (the source's name)
# [8] = test system: SF-539; assay: Cytotoxicity against human SF539 cells; type: functional; details: read-out: LC50 (the source's name)
# [9] = test system: MDA-MB-231; assay: Cytotoxicity against human MDA-MB-231 cells; type: functional; details: read-out: LC50 (the source's name)
# [10] = test system: NCI-H23; assay: Cytotoxicity against human NCI-H23 cells; type: functional; details: read-out: LC50 (the source's name)
# [11] = Cytotoxicity against human […] cells; type: functional; details: read-out: LC50 (the source's name)
# [12] = test system: IGROV-1; assay: Cytotoxicity against human IGROV1 cells; type: functional; details: read-out: LC50 (the source's name)
# [13] = as §1; type: organism-based; details: in vivo
# [14] = test system: CAKI-1; assay: Cytotoxicity against human Caki1 cells; type: functional; details: read-out: LC50 (the source's name)
# [15] = test system: 786-0; assay: Cytotoxicity against human 786-0 cells; type: functional; details: read-out: LC50 (the source's name)
# [16] = test system: SF-295; assay: Cytotoxicity against human SF295 cells; type: functional; details: read-out: LC50 (the source's name)
# [17] = test system: A498; assay: Cytotoxicity against human A498 cells; type: functional; details: read-out: LC50 (the source's name)
# [18] = test system: MCF7; assay: Cytotoxicity against human MCF7 cells; type: functional; details: read-out: LC50 (the source's name)
# [19] = test system: UACC-62; assay: Cytotoxicity against human UACC62 cells; type: functional; details: read-out: LC50 (the source's name)
# [20] = test system: COLO 205; assay: Cytotoxicity against human COLO205 cells; type: functional; details: read-out: LC50 (the source's name)
# [21] = Cytotoxicity against human MCF7/ADR cells; type: functional; details: NCI/ADR-RES, read-out: LC50 (the source's name)
# [22] = test system: SNB-19; assay: Cytotoxicity against human SNB19 cells; type: functional; details: read-out: LC50 (the source's name)
# [23] = test system: DU-145; assay: Cytotoxicity against human DU145 cells; type: functional; details: read-out: LC50 (the source's name)
# [24] = test system: SK-MEL-28; assay: Cytotoxicity against human SK-MEL-28 cells; type: functional; details: read-out: LC50 (the source's name)
# [25] = test system: TK-10; assay: Cytotoxicity against human TK10 cells; type: functional; details: read-out: LC50 (the source's name)
# [26] = test system: HCT-116; assay: Cytotoxicity against human HCT116 cells; type: functional; details: read-out: LC50 (the source's name)
# [27] = test system: NCI-H322M; assay: Cytotoxicity against human NCI-H322M cells; type: functional; details: read-out: LC50 (the source's name)
# [28] = test system: MOLT-4; assay: Cytotoxicity against human MOLT4 cells; type: functional; details: read-out: LC50 (the source's name)
# [29] = test system: T47D; assay: Cytotoxicity against human T47D cells; type: functional; details: read-out: LC50 (the source's name)
# [30] = test system: MDA-N; assay: Cytotoxicity against human MDA-N cells; type: functional; details: read-out: LC50 (the source's name)
# [31] = test system: SK-MEL-5; assay: Cytotoxicity against human SK-MEL-5 cells; type: functional; details: read-out: LC50 (the source's name)
# [32] = test system: HCT-15; assay: Cytotoxicity against human HCT15 cells; type: functional; details: read-out: LC50 (the source's name)
# [33] = test system: PC-3; assay: Cytotoxicity against human PC3 cells; type: functional; details: read-out: LC50 (the source's name)
# [34] = test system: OVCAR-3; assay: Cytotoxicity against human OVCAR-3 cells; type: functional; details: read-out: LC50 (the source's name)
# [35] = test system: OVCAR-5; assay: Cytotoxicity against human OVCAR5 cells; type: functional; details: read-out: LC50 (the source's name)
# [36] = Cytotoxicity against human Hs 578T cells; type: functional; details: read-out: LC50 (the source's name)
# [37] = test system: K562; assay: Cytotoxicity against human K562 cells; type: functional; details: read-out: LC50 (the source's name)
# [38] = test system: OVCAR-4; assay: Cytotoxicity against human OVCAR4 cells; type: functional; details: read-out: LC50 (the source's name)
# [39] = test system: UACC-257; assay: Cytotoxicity against human UACC257 cells; type: functional; details: read-out: LC50 (the source's name)
# [40] = test system: ACHN; assay: Cytotoxicity against human ACHN cells; type: functional; details: read-out: LC50 (the source's name)
# [41] = test system: HOP-62; assay: Cytotoxicity against human HOP62 cells; type: functional; details: read-out: LC50 (the source's name)
# [42] = test system: SK-OV-3; assay: Cytotoxicity against human SKOV3 cells; type: functional; details: read-out: LC50 (the source's name)
# [43] = test system: U-251; assay: Cytotoxicity against human U251 cells; type: functional; details: read-out: LC50 (the source's name)
# [44] = test system: UO-31; assay: Cytotoxicity against human UO31 cells; type: functional; details: read-out: LC50 (the source's name)
# [45] = test system: M14; assay: Cytotoxicity against human M14 cells; type: functional; details: read-out: LC50 (the source's name)
# [46] = test system: SR; assay: Cytotoxicity against human SR cells; type: functional; details: read-out: LC50 (the source's name)
# [47] = test system: NCI-H226; assay: Cytotoxicity against human NCI-H226 cells; type: functional; details: read-out: LC50 (the source's name)
# [48] = test system: HOP-92; assay: Cytotoxicity against human HOP92 cells; type: functional; details: read-out: LC50 (the source's name)
# [49] = test system: SF-268; assay: Cytotoxicity against human SF268 cells; type: functional; details: read-out: LC50 (the source's name)
# [50] = test system: LOX IMVI; assay: Cytotoxicity against human LOXIMVI cells; type: functional; details: read-out: LC50 (the source's name)
# [51] = test system: HT-29; assay: Cytotoxicity against human HT-29 cells; type: functional; details: read-out: LC50 (the source's name)
# [52] = test system: NCI-H460; assay: Cytotoxicity against human NCI-H460 cells; type: functional; details: read-out: LC50 (the source's name)
# [53] = test system: KM12; assay: Cytotoxicity against human KM12 cells; type: functional; details: read-out: LC50 (the source's name)
# [54] = test system: EKVX; assay: Cytotoxicity against human EKVX cells; type: functional; details: read-out: LC50 (the source's name)
# [55] = test system: NCI-H522; assay: Cytotoxicity against human NCI-H522 cells; type: functional; details: read-out: LC50 (the source's name)
# [56] = test system: CCRF-CEM; assay: Cytotoxicity against human CCRF-CEM cells; type: functional; details: read-out: LC50 (the source's name)
# [57] = test system: RXF 393; assay: Cytotoxicity against human […] cells; type: functional; details: read-out: LC50 (the source's name)
# [58] = test system: HL-60(TB); assay: Cytotoxicity against human HL-60(TB) cells; type: functional; details: read-out: LC50 (the source's name)
# [59] = test system: SK-MEL-2; assay: Cytotoxicity against human SK-MEL-2 cells; type: functional; details: read-out: LC50 (the source's name)
# [60] = test system: BT-549; assay: Cytotoxicity against human BT549 cells; type: functional; details: read-out: LC50 (the source's name)
# [61] = test system: HCC 2998; assay: Cytotoxicity against human HCC2998 cells; type: functional; details: read-out: LC50 (the source's name)
# [62] = test system: SW-620; assay: Cytotoxicity against human SW620 cells; type: functional; details: read-out: LC50 (the source's name)
# [63] = test system: MDA-MB-435; assay: Cytotoxicity against human MDA-MB-435 cells; type: functional; details: read-out: LC50 (the source's name)
# [64] = test system: Malme-3M; assay: Cytotoxicity against human MALME-3M cells; type: functional; details: read-out: LC50 (the source's name)
compound,measurement,setting,value
CC1=C/[C@H](C)C[C@@]2(C)CC[C@@H](O2)[C@@]23CC[C@@](C)(C[C@@H](O2)[C@H]2O[C@](C)(CC2=O)[C@@H](O)[C@@H]2CC[C@@]4(CCC[C@H](O4)[C@@H](C)C(=O)O[C@@H]4C[C@@H]([C@@]5(O)OCC[C@@H](C)[C@H]5O)O[C@@H]4\C=C\1)O2)O3,Activity,[1],inactive
same,Activity,[2],inactive
COc1cccc2c1C(=O)c1c(O)c3c(c(O)c1C2=O)C[C@@](O)(C(=O)CO)C[C@@H]3O[C@H]1C[C@H](N)[C@H](O)[C@H](C)O1 [DOXORUBICIN],LD50,[3],13 µg/mL
O=C(NCCSSCCNC(=O)/C(Cc1ccc(O)c(Br)c1)=N/O)/C(Cc1ccc(O)c(Br)c1)=N/O [PSAMMAPLIN A],CC50,[4],6.43 µg/mL
same,LC50,[5],4 µg/mL
same,CC50,[6],0.64 µg/mL
CC1=C\[C@H](C)C[C@@]2(C)CC[C@@H](O2)[C@@]23CC[C@@](C)(C[C@@H](O2)[C@H]2O[C@](C)(CC2=O)[C@@H](O)[C@@H]2CC[C@@]4(CCC[C@H](O4)[C@@H](C)C(=O)O[C@@H]4C[C@@H]([C@@]5(O)OCC[C@@H](C)[C@H]5O)O[C@@H]4\C=C\1)O2)O3 [PECTENOTOXIN II],CC50,[7],> 10 µM
same,CC50,[8],> 10 µM
same,CC50,[9],> 10 µM
same,CC50,[10],> 10 µM
same,CC50,[11],> 10 µM
same,CC50,[12],0.0673 µM
same,LD50,[13],0.26 mg/kg
same,CC50,[14],0.0191 µM
same,CC50,[15],> 10 µM
same,CC50,[16],0.0777 µM
same,CC50,[17],0.0341 µM
same,CC50,[18],> 10 µM
same,CC50,[19],> 10 µM
same,CC50,[20],0.00782 µM
same,CC50,[21],> 10 µM
same,CC50,[22],> 10 µM
same,CC50,[23],> 10 µM
same,CC50,[24],0.0423 µM
same,CC50,[25],0.0725 µM
same,CC50,[4],> 10 µM
same,CC50,[26],0.0733 µM
same,CC50,[27],> 10 µM
same,CC50,[28],> 10 µM
same,CC50,[29],> 10 µM
same,CC50,[30],> 10 µM
same,CC50,[31],0.0552 µM
same,LC50,[5],< 0.1 µg/mL
same,CC50,[32],> 10 µM
same,CC50,[33],> 10 µM
same,CC50,[34],0.0616 µM
same,CC50,[35],> 10 µM
same,CC50,[36],0.0779 µM
same,CC50,[37],> 10 µM
same,CC50,[38],> 10 µM
same,CC50,[39],> 10 µM
same,CC50,[40],> 10 µM
same,CC50,[41],0.0251 µM
same,CC50,[42],> 10 µM
same,CC50,[43],> 10 µM
same,CC50,[44],0.0563 µM
same,CC50,[45],4.73 µM
same,CC50,[46],> 10 µM
same,CC50,[47],> 10 µM
same,CC50,[48],0.807 µM
same,CC50,[49],0.154 µM
same,CC50,[50],> 10 µM
same,CC50,[51],> 10 µM
same,CC50,[52],> 10 µM
same,CC50,[53],> 10 µM
same,CC50,[54],0.062 µM
same,CC50,[55],> 10 µM
same,CC50,[56],> 10 µM
same,CC50,[57],0.03 µM
same,CC50,[58],> 10 µM
same,CC50,[59],> 10 µM
same,CC50,[60],0.0627 µM
same,CC50,[61],> 10 µM
same,CC50,[62],> 10 µM
same,CC50,[63],> 10 µM
same,CC50,[64],0.123 µM
O=c1[nH]cc(F)c(=O)[nH]1 [FLUOROURACIL],CC50,[6],0.2 µg/mL
